Where two headings read alike, the source gives them in different places.
How the values were obtained:
[1] = target: T1, lactate dehydrogenase (LDH) (Oryctolagus cuniculus, UniProt P13491); test: LDH kinetic assay, spectrophotometric oxidation of NADH (340 nm); assay type: biochemical, Rabbit; details: for IC50: common ligand mimics, Examples 23/24, LDH from Rabbit Muscle
T1 construct: 10 μl of LDH from Rabbit Muscle; from tissue; host or cells: rabbit muscle
Method: For LDH analysis, the compounds were screened using a kinetic protocol that spectrophotometrically evaluates oxidation of NADH.
(§1) Stock solutions of each of the reagents were prepared in the following concentrations. Dilutions of the stock solutions were prepared prior to running the assay in the concentrations indicated below.
The LDH reaction was monitored at 340 nm prior to and after addition of the inhibitor to detect background reaction with the inhibitor. Solutions of 100 μl of the inhibitors in DMSO were prepared to provide a final DMSO concentration of 5% of the total assay volume. These solutions were incubated for 6 minutes at 25° C. in a 990 μl of a solution containing 0.1 M HEPES, pH 7.4, 10 μM NADH, and 2.5 mM of pyruvate. The reaction was then initiated with 10 μl of LDH from Rabbit Muscle (0.5 μg/ml; 1:2000 dilution of 1.0 mg/ml). After the enzyme was added, the solution was mixed for 20 seconds, and the reaction was run for 10 minutes. After a 50 second lag, the samples were read in a Cary spectrophotometer at 340 nm. Reading of the samples was continued until 300 seconds. Cuvette #1 contained the control reaction (no inhibitor), and cuvette #2 contained the positive control reaction in which Cibacron Blue at 10.3 μM was substituted for inhibitor to yield 50 to 70% inhibition. The substrate was kept at a level at least 10 times the Km.

[2] = target: dihydrofolate reductase (DHFR) (UniProt P00374); test: DHFR kinetic assay, spectrophotometric oxidation of NADH (340 nm); assay type: biochemical
dihydrofolate reductase (DHFR), sequence (P00374 whole entry): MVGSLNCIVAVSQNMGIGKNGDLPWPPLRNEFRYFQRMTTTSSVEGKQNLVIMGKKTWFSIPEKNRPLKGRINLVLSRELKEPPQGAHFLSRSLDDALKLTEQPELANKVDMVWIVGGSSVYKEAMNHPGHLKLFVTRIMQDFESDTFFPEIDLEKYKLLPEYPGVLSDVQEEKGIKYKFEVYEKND
Method: For DHFR analysis, the compounds were screened using a kinetic protocol that spectrophotometrically evaluates oxidation of NADH.
Stock solutions of each of the reagents were prepared in the following concentrations. Dilutions of the stock solutions were prepared prior to running the assay in the concentrations indicated below. H2 folate was dissolved in DMSO to about 10 mM and then diluted with water to a concentration of 0.1 mM.
The DHFR reaction was monitored at 340 nm prior to and after addition of the inhibitor to detect background reaction with the inhibitor. Solutions of 100 μl of the inhibitors in DMSO were prepared to provide a final DMSO concentration of 5% of the total assay volume. These solutions were incubated for 6 minutes at 25° C. in a 992 μl of a solution containing 0.1 M Tris-HCl, pH 7.0, 150 mM KCl, 5 μM H2 folate, and 52 μM NADH. The oxidation reaction was then initiated with 8 μl of DHFR (0.047 mg/ml). After the enzyme was added, the solution was mixed for 20 seconds, and the reaction was run for 10 minutes. After a 50 second lag, the samples were read in a Cary spectrophotometer at 340 nm. Reading of the samples was continued until 300 seconds. Cuvette #1 always contained the control reaction (no inhibitor), and cuvette #2 always contained the positive control reaction in which Cibacron Blue at 3 μM was substituted for inhibitor to yield 50 to 70% inhibition. The substrate was kept at a level at least 10 times the Km.

[3] = target: inosine-5′-monophosphate dehydrogenase (IMPDH); test: IMPDH kinetic assay, spectrophotometric reduction of NAD+ (340 nm); assay type: biochemical; details: for IC50: common ligand mimics, Examples 23/24
Method: For IMPDH analysis, the compounds were screened using a kinetic protocol that spectrophotometrically evaluates reduction of NAD+.
as §1
The IMPDH reaction was monitored at 340 nm prior to and after addition of the inhibitor to detect background reaction with the inhibitor. Solutions of 100 μl of the inhibitors in DMSO were prepared to provide a final DMSO concentration of 5% of the total assay volume. These solutions were incubated for 6 minutes at 37° C. in a 992 μl of a solution containing 0.1 M Tris-HCl, pH 8.0, 0.25 M KCl, 0.3% glycerol, 30 μM NAD+, and 600 μM IMP (inosine monophosphate). The reaction was then initiated with 8 μl of IMPDH (0.75 μg/ml). After the enzyme was added, the solution was mixed for 20 seconds, and the reaction was run for 10 minutes. After a 50 second lag, the samples were read in a Cary spectrophotometer at 340 nm. Reading of the samples was continued until 300 seconds. Cuvette #1 contained the control reaction (no inhibitor), and cuvette #2 contained the positive control reaction in which Cibacron Blue was substituted for inhibitor. The substrate was kept at a level at least 10 times the Km.

[4] = target: glyceraldehyde-3-phosphate dehydrogenase (GAPDH) (Escherichia coli, UniProt P0A9B2); test: GAPDH kinetic assay, spectrophotometric reduction of NAD+ (340 nm); assay type: biochemical, E. coli; details: for inhibition of GAPDH (in words): Example 24 (FIG. 6)
glyceraldehyde-3-phosphate dehydrogenase (GAPDH), sequence (P0A9B2 whole entry): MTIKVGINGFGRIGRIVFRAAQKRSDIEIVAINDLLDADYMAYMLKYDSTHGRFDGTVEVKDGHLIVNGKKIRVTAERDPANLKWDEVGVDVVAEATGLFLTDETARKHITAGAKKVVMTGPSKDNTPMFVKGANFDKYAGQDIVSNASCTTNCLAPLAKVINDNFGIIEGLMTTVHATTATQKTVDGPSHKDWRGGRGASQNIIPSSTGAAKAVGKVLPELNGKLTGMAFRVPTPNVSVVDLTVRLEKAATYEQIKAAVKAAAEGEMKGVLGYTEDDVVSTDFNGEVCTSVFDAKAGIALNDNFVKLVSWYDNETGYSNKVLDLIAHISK
Method: For GAPDH analysis, the compounds were screened using a kinetic protocol that spectrophotometrically evaluates reduction of NAD+.
as §1
The GAPDH reaction was monitored at 340 nm prior to and after addition of the inhibitor to detect background reaction with the inhibitor. Solutions of 100 μl of the inhibitors incubated for 6 minutes at 25° C. in a 990 μl of a solution containing 125 mM triethanolamine, pH 7.5, 145 μM glyceraldehyde 3-phosphate (GAP), 0.211 mM NAD, 5 mM sodium arsenate, and 3 mM β-metcaptoethanol (2-BME). The reaction was then initiated with 10 μl of E. coli GAPDH (1:200 dilution of 1.0 mg/ml). After the enzyme was added, the solution was mixed for 20 seconds, and the reaction was run for 10minutes. After a 50 second lag, the samples were read in a Cary spectrophotometer at 340 nm. Reading of the samples was continued until 300 seconds. The final concentration of DMSO in a cuvette was about 5% of the total assay volume. Cuvette #1 contained the control reaction (no inhibitor).
GAP for use in this experiment was deprotected from the diethyl acetal in the following manner. Water was boiled in recrystallizing dish. Dowex (1.5 mg) and GAP (200 mg; SIGMA G-5376) were weighed and placed in a 15 ml conical tube. The Dowex and GAP were resuspended in 2 ml dH2O, followed by shaking of the tube until the GAP dissolved. The tube was then immersed, while shaking, in the boiling water for 3 minutes. Next, the tube was placed in an ice bath to cool for 5 minutes. As the sample cooled, a resin settled to the bottom of the test tube, allowing removal of the supernatant with a pasteur pipette. The supernatant was filtered through a 0.45 or 0.2 μM cellulose acetate syringe filter.
The filtered supernatant was retained, and another 1 ml of dH2O was added to the resin tube. The tube was then shaken and centrifuged for 5 minutes at 3,000 rpm. The supernatant was again removed with a pasteur pipette and passed through a 0.45 or 0.2 μM cellulose acetate syringe filter. The two supernatant aliquots were then pooled to provide a total GAP concentration of about 50 mM. The GAP was then divided into 100 μl aliquots and stored at −20° C. until use.

[5] = read-out: IC50 for DHFR; common ligand mimics, Examples 23/24
[6] = common ligand mimics, Examples 23/24; read-out: IC50 for DHFR

Structure (SMILES)	inhibition at 10.3 µM ([1]; Cibacron Blue at 10.3 μM, read-out: inhibition of LDH, positive control)	IC50 [2, 5]	IC50 [3]	IC50 [1]	IC50 [2, 6]	inhibition of GAPDH (in words) [4]	IC50 ([4]; common ligand mimics, Examples 23/24, E. coli GAPDH, read-out: IC50 for GAPDH)	IC50 [4]	inhibition of IMPDH (in words) ([3]; Example 24 (FIG. 6))
Nc1c(S(=O)(=O)O)cc(Nc2ccc(Nc3nc(Cl)nc(Nc4ccccc4S(=O)(=O)O)n3)c(S(=O)(=O)O)c2)c2c1C(=O)c1ccccc1C2=O [Cibacron Blue, reference compound]	50 to 70%	–	–	–	–	–	–	–	–
COc1cc(C=C2SC(N)=NC2=O)ccc1O [5-(4-hydroxy-3-methoxy-benzylidene)-2-imino-thiazolidin-4-one]	–	> 100 µM	> 100 µM	> 100 µM	–	–	–	–	–
N=C1NC(=O)C(=Cc2ccc(C(=O)O)cc2)S1 [4-(2-imino-4-oxo-thiazolidin-5-ylidenemethyl)-benzoic acid]	–	–	> 40 µM	> 100 µM	> 20 µM	no inhibition	> 100 µM	–	–
N=C1NC(=O)C(=Cc2ccc(O)c([N+](=O)[O-])c2)S1 [5-(4-hydroxy-3-nitro-benzylidene)-2-imino-thiazolidin-4-one]	–	> 75 µM	> 75 µM	27.9 µM	–	–	–	153 µM	–
COc1cc(O)ccc1C=C1SC(=N)NC1=O [5-(4-hydroxy-2-methoxy-benzylidene)-2-imino-thiazolidin-4-one]	–	–	–	–	> 100 µM	no inhibition	–	–	no inhibition
